In ChEMBL document CHEMBL2380278, “Synthesis and antibacterial evaluation of a novel series of 10-hydroxyl ketolide derivatives” (2013):
Converted amounts (≈) assume the structure as drawn.

Experiments:
[1] = tested on: Staphylococcus epidermidis; assay: Antibacterial activity against drug-resistant Staphylococcus epidermidis by broth microdilution method; assay type: functional
[2] = tested on: Pseudomonas aeruginosa; assay: Antibacterial activity against drug-resistant Pseudomonas aeruginosa by broth microdilution method; assay type: functional
[3] = tested on: Escherichia coli; assay: Antibacterial activity against Escherichia coli ATCC 35218 by broth microdilution method; assay type: functional
[4] = tested on: Escherichia coli; assay: Antibacterial activity against Escherichia coli ATCC 25922 by broth microdilution method; assay type: functional
[5] = tested on: Escherichia coli; assay: Antibacterial activity against drug-resistant Escherichia coli by broth microdilution method; assay type: functional
[6] = tested on: Salmonella typhi; assay: Antibacterial activity against drug-resistant Salmonella typhi by broth microdilution method; assay type: functional, Salmonella enterica subsp. enterica serovar Typhi; conditions: Salmonella enterica
[7] = tested on: Klebsiella pneumoniae; assay: Antibacterial activity against drug-resistant Klebsiella pneumoniae by broth microdilution method; assay type: functional
[8] = tested on: Staphylococcus aureus; assay: Antibacterial activity against Staphylococcus aureus ATCC 25923 by broth microdilution method; assay type: functional
[9] = tested on: Pseudomonas aeruginosa; assay: Antibacterial activity against Pseudomonas aeruginosa ATCC 27853 by broth microdilution method; assay type: functional
[10] = tested on: Staphylococcus aureus; assay: Antibacterial activity against drug-resistant Staphylococcus aureus by broth microdilution method; assay type: functional

CC[C@H]1OC(=O)[C@H](C)C(=O)[C@H](C)[C@@H](O[C@@H]2O[C@H](C)C[C@H](N(C)C)[C@H]2O)[C@](C)(OC)C[C@@H](C)C(=O)[C@@](C)(O)[C@H](O)[C@]1(C)O
MIC [1]: > 128 µg/mL
MIC [2]: > 128 µg/mL
MIC [3]: > 128 µg/mL
MIC [4]: > 128 µg/mL
MIC [5]: > 128 µg/mL
MIC [6]: > 128 µg/mL
MIC [7]: > 128 µg/mL
MIC [8]: 64 µg/mL (≈ 106 µM)
MIC [9]: > 128 µg/mL
MIC [10]: > 128 µg/mL

CC[C@H]1OC(=O)[C@H](C)C(=O)[C@H](C)[C@@H](O[C@@H]2O[C@H](C)C[C@H](N(C)C)[C@H]2O)[C@](C)(OC)C[C@@H](C)C(=O)[C@@](C)(O)[C@H]2OC(=O)O[C@]12C
MIC [1]: 64 µg/mL (≈ 102 µM)
MIC [2]: > 128 µg/mL
MIC [3]: > 128 µg/mL
MIC [4]: > 128 µg/mL
MIC [5]: > 128 µg/mL
MIC [6]: > 128 µg/mL
MIC [7]: > 128 µg/mL
MIC [8]: 128 µg/mL (≈ 203 µM)
MIC [9]: > 128 µg/mL
MIC [10]: > 128 µg/mL

CC[C@H]1OC(=O)[C@H](C)C(=O)[C@H](C)[C@@H](O[C@@H]2O[C@H](C)C[C@H](N(C)C)[C@H]2O)[C@](C)(OC)C[C@@H](C)C(=O)[C@@](C)(O)[C@H]2OS(=O)O[C@]12C (stereo not given in full)
MIC [1]: 8 µg/mL (≈ 12.3 µM)
MIC [2]: > 128 µg/mL
MIC [3]: > 128 µg/mL
MIC [4]: > 128 µg/mL
MIC [5]: > 128 µg/mL
MIC [6]: > 128 µg/mL
MIC [7]: > 128 µg/mL
MIC [8]: 64 µg/mL (≈ 98.5 µM)
MIC [9]: > 128 µg/mL
MIC [10]: > 128 µg/mL

CC[C@H]1OC(=O)[C@H](C)C(=O)[C@H](C)[C@@H](O[C@@H]2O[C@H](C)C[C@H](N(C)C)[C@H]2O)[C@](C)(OC)C[C@@H](C)C(=O)[C@]2(C)O[C@H]2[C@]1(C)O
MIC [1]: 128 µg/mL (≈ 219 µM)
MIC [2]: > 128 µg/mL
MIC [3]: > 128 µg/mL
MIC [4]: > 128 µg/mL
MIC [5]: > 128 µg/mL
MIC [6]: > 128 µg/mL
MIC [7]: > 128 µg/mL
MIC [8]: 128 µg/mL (≈ 219 µM)
MIC [9]: > 128 µg/mL
MIC [10]: > 128 µg/mL

CC[C@H]1OC(=O)[C@H](C)C(=O)[C@H](C)[C@@H](O[C@@H]2O[C@H](C)C[C@H](N(C)C)[C@H]2O)[C@](C)(OC)C[C@@H](C)C(=O)[C@@H](C)[C@H]2OC(=O)O[C@@]21C
MIC [1]: 0.0625 µg/mL (≈ 0.102 µM)
MIC [2]: > 128 µg/mL
MIC [3]: 128 µg/mL (≈ 209 µM)
MIC [4]: 128 µg/mL (≈ 209 µM)
MIC [5]: 64 µg/mL (≈ 104 µM)
MIC [6]: 128 µg/mL (≈ 209 µM)
MIC [7]: 128 µg/mL (≈ 209 µM)
MIC [8]: 64 µg/mL (≈ 104 µM)
MIC [9]: > 128 µg/mL
MIC [10]: 128 µg/mL (≈ 209 µM)

CC[C@H]1OC(=O)[C@H](C)[C@@H](O[C@H]2C[C@@](C)(OC)[C@@H](O)[C@H](C)O2)[C@H](C)[C@@H](O[C@@H]2O[C@H](C)C[C@H](N(C)C)[C@H]2O)[C@](C)(OC)C[C@@H](C)C(=O)[C@H](C)[C@@H](O)[C@]1(C)O [CLARITHROMYCIN]
MIC [1]: 64 µg/mL (≈ 85.6 µM)
MIC [2]: 128 µg/mL (≈ 171 µM)
MIC [3]: 32 µg/mL (≈ 42.8 µM)
MIC [4]: 64 µg/mL (≈ 85.6 µM)
MIC [5]: 64 µg/mL (≈ 85.6 µM)
MIC [6]: 64 µg/mL (≈ 85.6 µM)
MIC [7]: 64 µg/mL (≈ 85.6 µM)
MIC [8]: 32 µg/mL (≈ 42.8 µM)
MIC [9]: 64 µg/mL (≈ 85.6 µM)
MIC [10]: > 128 µg/mL

CC[C@H]1OC(=O)[C@H](C)C(=O)[C@H](C)[C@@H](O[C@@H]2O[C@H](C)C[C@H](N(C)C)[C@H]2O)[C@](C)(OC)C[C@@H](C)C(=O)[C@H](C)[C@H]2N(CCCCn3cnc(-c4cccnc4)c3)C(=O)O[C@]12C [TELITHROMYCIN]
MIC [1]: 0.125 µg/mL (≈ 0.154 µM)
MIC [2]: 64 µg/mL (≈ 78.8 µM)
MIC [3]: 8 µg/mL (≈ 9.85 µM)
MIC [4]: 2 µg/mL (≈ 2.46 µM)
MIC [5]: 32 µg/mL (≈ 39.4 µM)
MIC [6]: 16 µg/mL (≈ 19.7 µM)
MIC [7]: 16 µg/mL (≈ 19.7 µM)
MIC [8]: 16 µg/mL (≈ 19.7 µM)
MIC [9]: 64 µg/mL (≈ 78.8 µM)
MIC [10]: 16 µg/mL (≈ 19.7 µM)
